Details: Liquid, Other PVT measurement

CCCCCCCCCCCCCCCC [hexadecane]
mass density [kg/m3]
Details	10000 kPa	20000 kPa	30000 kPa	40000 kPa	50000 kPa
298.2 K	775.86	782.89	788.75	793.81	799.18
303.2 K	773.66	779.38	785.01	790.38	795.64
313.2 K	764.59	773.09	778.81	784.36	789.46
323.2 K	759.8	766.48	773.19	778.83	784.38
333.2 K	753.38	760.44	767.3	773.53	779.1
348.2 K	744.11	751.32	758.67	765.1	770.98
353.2 K	740.03	748.27	755.72	762.19	768.11
373.2 K	727.81	736.02	744.18	751.02	757.42
393.2 K	713.25	723.64	732.3	739.4	746.41
413.2 K	700.27	711.23	720.49	728.42	735.85
423.2 K	694.3	705.01	714.62	722.88	730.73
433.2 K	687.01	698.74	708.69	717.4	725.14
453.2 K	674.02	686.53	696.77	706.13	714.59
463.2 K	669.34	680.32	690.8	700.49	709.18
473.2 K	660.45	673.95	685.23	695.19	704.05

— the NIST ThermoML archive (doi:10.1021/acs.jced.9b00078)
